Assay results taken from US7521418B2, “Use of a polyene macrolide antifungal agent in combination with a glycopeptide antibacterial agent” (Theravance, Inc., priority 2003, dated 2009).

Tests used:
[1] = system: C. krusei ATCC 32672; assay: Checkerboard MIC assay, FICI; type: cell-based, Candida krusei
Description: (§1) The following assay was used to determine the minimum inhibitory concentration (MIC) and fractional inhibitory concentration index (FICI) for combinations of an antifungal agent and a glycopeptide antibacterial agent. This assay and methods for calculating FICI are well known in the art. See, for example, Eliopoulos, E. G. and R. Moellering, Jr. “Antimicrobial Combinations” in Antibiotics in Laboratory Medicine, edited by V. Lorian, 4th Ed., Williams & Wilkins, Baltimore, MD, pp. 330-396 (1996); […] et al., Antimicrobial Agents and Chemotherapy 47(4):1416-1418 (2003); or […] et al., Antimicrobial Agents and Chemotherapy 46(10):3323-3326 (2002). Procedures, protocols, supplies and equipment used in this assay follow the recommendations approved and published by the National Committee for Clinical Laboratory Standards (NCCLS), Wayne, Pa. as described in NCCLS 2003, “Reference Method for Broth Dilution Antimicrobial Susceptibility Tests for Bacteria that Grow Aerobically; Approved Standard” (NCCLS document M7-A6); NCCLS 2002, “Reference Method for Broth Dilution Antifungal Susceptibility Tests of Filamentous Fungi that Grow Aerobically; Approved Standard” (NCCLS document M38-A); and NCCLS 2002 “Reference Method for Broth Dilution Antifungal Susceptibility Tests of Yeast; Approved Standards-2nd Edition” (NCCLS document M27-A2). Using a checkerboard method, a 2-fold dilution 100× final concentration master plate was prepared using a 96-well U-shape microtiter plate and an appropriate solvent. In the “checkerboard” method, a microtiter plate is divided into “columns” in which each well in the column contains the same amount of an antifungal agent (Compound A) being diluted along the x-axis, and “rows” in which each well in the row contains the same amount of a glycopeptide antibacterial agent (Compound B) being diluted on the y-axis. Also included is a row (or column) for Compound A or B alone. The dilutions used in the checkerboard are exponential (by powers of two). The result is that each well in the microtiter plate contains a unique concentration of the two compounds being tested. […] After mixing, 100 μL of 2× drug combinations were distributed into 96-well microtiter plates. […] Compound A was not added to Column 12, so Column 12 contained only Compound B. Compound B was diluted from row A starting at 6,400 μg/mL down to row G (100 μg/mL). Wells in Row A contained a final concentration of 64 μg/mL of Compound B; Row B contained a final concentration of 32 μg/mL of Compound B; Row C contained a final concentration of 16 μg/mL of Compound B; etc. Compound B was not added to Row H, so Row H only contained Compound A. […] The MIC of the glycopeptide antibacterial agent determined from this experiment was used in FIC calculations. […] RPMI-1640 without sodium bicarbonate media (GIBCO-BRL, Carlsbad, Calif.), an enriched media formulated for mammalian cells, was used according to the NCCLS guidelines for yeast and filamentous fungi susceptibility testing. The medium was buffered with 0.165 M 3-[N-Morpholino]propanesulfonic acid (MOPS) supplemented with 20 g/L glucose and pH adjusted to 7.0 with hydrogen chloride. Sabouraud Dextrose Agar ([…] plates, and Potato Dextrose Agar (PDA) plates were purchased from Hardy Diagnostic (Santa Maria, Calif.). Yeast cultures were started from -80° C. frozen stock streaked on […] incubated at 35° C. under aerobic conditions for 24 h. The […] in the refrigerator for up to 2 weeks and used regularly as a starting culture. About 24 to 48 h before each assay was run, yeasts were streaked on SDA plates for isolated colonies. To prepare the inoculum, from one to four colonies were resuspended in 5 mL of saline, and vortexed for 15 sec. […] For most yeast and mold cultures, the optical density (OD) of the suspension was adjusted to 0.11 in saline to provide 0.4×10^6 CFU/mL. However, for Fusarium moniliforme and Pseudallescheria boydii the OD of the suspension was adjusted to OD=0.17 to provide 0.4×10^6 CFU/mL. […]

[2] = system: C. glabrata ATCC 200918; assay: Checkerboard MIC assay, FICI; type: cell-based, Candida glabrata; settings: combination with Compound 1
Description: The following assay was used to determine the minimum inhibitory concentration (MIC) and fractional inhibitory concentration index (FICI) for combinations of an antifungal agent and a glycopeptide antibacterial agent. This assay and methods for calculating FICI are well known in the art. See, for example, Eliopoulos, E. G. and R. Moellering, Jr. “Antimicrobial Combinations” in Antibiotics in Laboratory Medicine, edited by V. Lorian, 4th Ed., Williams & Wilkins, Baltimore, MD, pp. 330-396 (1996); […] et al., Antimicrobial Agents and Chemotherapy 47(4):1416-1418 (2003); or […] et al., Antimicrobial Agents and Chemotherapy 46(10):3323-3326 (2002). Procedures, protocols, supplies and equipment used in this assay follow the recommendations approved and published by the National Committee for Clinical Laboratory Standards (NCCLS), Wayne, Pa. as described in NCCLS 2003, “Reference Method for Broth Dilution Antimicrobial Susceptibility Tests for Bacteria that Grow Aerobically; Approved Standard” (NCCLS document M7-A6); NCCLS 2002, “Reference Method for Broth Dilution Antifungal Susceptibility Tests of Filamentous Fungi that Grow Aerobically; Approved Standard” (NCCLS document M38-A); and NCCLS 2002 “Reference Method for Broth Dilution Antifungal Susceptibility Tests of Yeast; Approved Standards-2nd Edition” (NCCLS document M27-A2). Using a checkerboard method, a 2-fold dilution 100× final concentration master plate was prepared using a 96-well U-shape microtiter plate and an appropriate solvent. In the “checkerboard” method, a microtiter plate is divided into “columns” in which each well in the column contains the same amount of an antifungal agent (Compound A) being diluted along the x-axis, and “rows” in which each well in the row contains the same amount of a glycopeptide antibacterial agent (Compound B) being diluted on the y-axis. Also included is a row (or column) for Compound A or B alone. The dilutions used in the checkerboard are exponential (by powers of two). The result is that each well in the microtiter plate contains a unique concentration of the two compounds being tested. […] After mixing, 100 μL of 2× drug combinations were distributed into 96-well microtiter plates. […] Compound A was not added to Column 12, so Column 12 contained only Compound B. Compound B was diluted from row A starting at 6,400 μg/mL down to row G (100 μg/mL). Wells in Row A contained a final concentration of 64 μg/mL of Compound B; Row B contained a final concentration of 32 μg/mL of Compound B; Row C contained a final concentration of 16 μg/mL of Compound B; etc. Compound B was not added to Row H, so Row H only contained Compound A. […] The MIC of the glycopeptide antibacterial agent determined from this experiment was used in FIC calculations. […]

[3] = system: C. albicans ATCC 24433; assay: Checkerboard MIC assay, FICI; type: cell-based, Candida albicans
Description: as §1

[4] = system: C. parapsilosis ATCC 22019; assay: Checkerboard MIC assay, FICI; type: cell-based, Candida parapsilosis
Description: as §1

[5] = system: C. tropicalis ATCC 750; assay: Checkerboard MIC assay, FICI; type: cell-based, Candida tropicalis
Description: as §1

[6] = system: various strains of fungi; assay: Assay for determining MIC and FICI, summary over strains; type: cell-based; settings: combination with amphotericin B
Description: The following assay was used to determine the minimum inhibitory concentration (MIC) and fractional inhibitory concentration index (FICI) for combinations of an antifungal agent and a glycopeptide antibacterial agent. This assay and methods for calculating FICI are well known in the art. See, for example, Eliopoulos, E. G. and R. Moellering, Jr. “Antimicrobial Combinations” in Antibiotics in Laboratory Medicine, edited by V. Lorian, 4th Ed., Williams & Wilkins, Baltimore, MD, pp. 330-396 (1996); Shalit et al., Antimicrobial Agents and Chemotherapy 47(4):1416-1418 (2003); or Afeltra et al., Antimicrobial Agents and Chemotherapy 46(10):3323-3326 (2002).
Procedures, protocols, supplies and equipment used in this assay follow the recommendations approved and published by the National Committee for Clinical Laboratory Standards (NCCLS), Wayne, Pa. as described in NCCLS 2003, “Reference Method for Broth Dilution Antimicrobial Susceptibility Tests for Bacteria that Grow Aerobically; Approved Standard” (NCCLS document M7-A6); NCCLS 2002, “Reference Method for Broth Dilution Antifungal Susceptibility Tests of Filamentous Fungi that Grow Aerobically; Approved Standard” (NCCLS document M38-A); and NCCLS 2002 “Reference Method for Broth Dilution Antifungal Susceptibility Tests of Yeast; Approved Standards-2nd Edition” (NCCLS document M27-A2). […]

[7] = combination with Compound 1, C. krusei ATCC 32672
[8] = combination with Compound 1, C. albicans ATCC 24433
[9] = combination with Compound 1, C. parapsilosis ATCC 22019
[10] = combination with Compound 1, C. tropicalis ATCC 750
[11] = combination with Amphotericin B, C. albicans 24433
[12] = combination with Amphotericin B, C. parapsilosis 22019
[13] = combination with Amphotericin B, C. tropicalis 750
[14] = combination with Amphotericin B, C. krusei 32672

Compound	FICI [1, 7]	FICI [2]	FICI [3, 8]	FICI [4, 9]	FICI [5, 10]	FICI [3, 11]	FICI [4, 12]	FICI [5, 13]	FICI [1, 14]	effect of the combination [6]
C[C@@H](c1ncncc1F)[C@](O)(Cn1cncn1)c1ccc(F)cc1F [Voriconazole, voriconazole]	1.13	1.13	–	–	–	–	–	–	–	–
OC(Cn1cncn1)(Cn1cncn1)c1ccc(F)cc1F [Fluconazole]	2.00	2.00	2.00	2.00	2.00	–	–	–	–	–
Teicoplanin	–	–	–	–	–	0.53	0.38	0.38	0.38	–
CN[C@H](CC(C)C)C(=O)N[C@H]1C(=O)N[C@@H](CC(N)=O)C(=O)N[C@H]2C(=O)N[C@H]3C(=O)N[C@H](C(=O)N[C@H](C(=O)O)c4cc(O)cc(O)c4-c4cc3ccc4O)[C@H](O)c3ccc(c(Cl)c3)Oc3cc2cc(c3O[C@@H]2O[C@H](CO)[C@@H](O)[C@H](O)[C@H]2O[C@H]2C[C@](C)(N)[C@H](O)[C@H](C)O2)Oc2ccc(cc2Cl)[C@H]1O [Vancomycin]	–	–	–	–	–	2.00	2.00	2.00	2.00	not synergistic or additive
Clc1ccc(COC(Cn2ccnc2)c2ccc(Cl)cc2Cl)c(Cl)c1 (centres unmarked) [Miconazole, miconazole]	–	–	2.00	2.00	2.00	–	–	–	–	–
CCCCCCCCCCNCCN[C@@]1(C)C[C@H](O[C@H]2[C@H](Oc3c4cc5cc3Oc3ccc(cc3Cl)[C@@H](O)[C@@H](NC(=O)[C@@H](CC(C)C)NC)C(=O)N[C@@H](CC(N)=O)C(=O)N[C@H]5C(=O)N[C@H]3C(=O)N[C@H](C(=O)N[C@H](C(=O)O)c5cc(O)c(CNCP(=O)(O)O)c(O)c5-c5cc3ccc5O)[C@H](O)c3ccc(c(Cl)c3)O4)O[C@H](CO)[C@@H](O)[C@@H]2O)O[C@@H](C)[C@H]1O [Compound 1, telavancin]	–	–	–	–	–	0.31	0.31	0.31	0.31	–
